From patent publication US20150367034A1, “CREATION OF THREE-DIMENSIONAL SYNTHETIC TISSUE FROM PLURIPOTENT STEM CELL-DERIVED CELLS, AND OSTEOCHONDRAL REGENERATION TREATMENT USING SAID SYNTHETIC TISSUE” (OSAKA UNIVERSITY, priority 2013, published 2015)

How the values were obtained:
Synovial cells = assay: Extracellular matrix formation and collagen content (hydroxyproline) of synovial cell synthetic tissue; assay type: cell-based; details: pig synovial cells
Description: Synovial cells were collected from a knee joint of a pig (LWD ternary hybrid, 2-3 months old upon removal of cells), followed by treatment with collagenase. The cells were cultured and subcultured in a 10% fetal bovine serum+High Glucose-DMEM medium (fetal bovine serum available from HyClone, DMEM was obtained from GIBCO). It has been reported that 10th passage synovial cells still have pluripotency. Although cells of 10 or less passages were used in this production example, it is understood that cells of more than 10 passages may be used depending on the application. Autotransplantation was performed for actual human implantation, but it was necessary to secure a sufficient number of cells and to culture the cells for a short period of time so as to reduce the risk of infection or the like. Synovial cells (4.0×10^5) were cultured in 0.1-0.2 ml/cm^2 of 10% FBS-DMEM medium in a 35-mm dish, 60-mm dish, 100-mm dish, 150-mm dish, 500-m dish, 6-well culture dish, 12-well culture dish, or 24-well culture dish (BD Biosciences, cell culture dish and multiwell cell culture plate). In this case, ascorbic acid was added. […] In order to determine the collagen concentration, the collagen content was measured. […]

ES-MSCs = assay: Volume, weight and hydroxyproline of TEC from ES-MSCs with or without ascorbic acid 2-phosphate; assay type: cell-based, rabbit; details: 0.2 mM added versus non-added; FIG. 3
Description: The protocol thereof is disclosed below.
ES-MSCs were inoculated at a TEC creation concentration (1.52×10^5 cells/well) in each well of a 12 well plate to create a TEC. A medium was created by separating conventional 10% FBS-containing DMEM for TEC creation into a 0.2 mM ascorbic acid added group (n=6) and non-added group (n=6). Three of each group were used for weight/volume measurements and the rest of the three were used in hydroxyproline measurements. For hydroxyproline, the following kit was used (Hydroxyproline Assay Kit Cat#K555-100; Lot#60855, BioVision), where the measurements were taken in accordance with the protocol on the package insert.
For the TEC made from 0.125×10^6, 0.25×10^6, 0.5×10^6, 1×10^6, 2×10^6, 4×10^6, 8×10^6, or 16×10^6 cells/well in a 6 well plate which was cultured over 12 days, detached, and allowed to undergo self-contraction, the volume was measured with a plethysmometer (model TK-101CMP; UNICOM, Chiba, Japan), and the weight was measured with a scale (Ando W, Tateishi K, Katakai D, Hart D A, Higuchi C, Nakata K, et al., Tissue Eng Part A 2008:14:2041-2049). 4 samples were evaluated at each cell density. In short, a plethysmometer is a minute volume controlled measuring device that is specially designed for accurate measurement. A plethysmometer consists of Perspex cells filled with water. A transducer records a small difference in the water level caused by a change in volume. […] The weight was measured with a common scale (METTLER TOLEDO AG204, Mettler-Toledo International Inc., Max210gd=0.1 mg, METTLER TOLEDO AG204 (Mettler-Toledo International Inc.)) in a laboratory […]. Measurements were taken in accordance with the protocol on the package insert.

In the case of `O=C1O[C@H]([C@@H](O)CO)C(O)=C1OP(=O)(O)O` [ascorbic acid 2-phosphate], the “production of collagen (amount of hydroxyproline)” value (Synovial cells; 0.1 mM or more added) is reported as “significantly promoted”, the “formation of an extracellular matrix” value (Synovial cells; added at a concentration of 0.1 mM or more) is reported as “promoted” and the “hydroxyproline generation amount of TEC” value (ES-MSCs) is reported as “significantly increased”. The “volume of TEC” value (ES-MSCs) was “significantly increased” and the “weight of TEC” value (ES-MSCs) was “significantly increased”.
